In the NIST ThermoML archive (doi:10.1016/j.tca.2011.08.002):
± gives the expanded uncertainty stated by the source.

Assay: refractive index (Na D-line) (dimensionless); xn = mol fraction of the nth substance listed
Settings: 101 kPa, Liquid, Standard Abbe refractometry

C1CCC(NC2CCCCC2)CC1 [N-cyclohexylcyclohexanamine] + CCC(C)O
refractive index (288.15 K, x2 = 0): 1.48636 ± 0.0004
refractive index (288.15 K, x2 = 0.0996): 1.48336 ± 0.0004
refractive index (288.15 K, x2 = 0.1998): 1.47951 ± 0.0004
refractive index (288.15 K, x2 = 0.3): 1.47497 ± 0.0004
refractive index (288.15 K, x2 = 0.3998): 1.46961 ± 0.0004
refractive index (288.15 K, x2 = 0.5011): 1.4629 ± 0.0004
refractive index (288.15 K, x2 = 0.599): 1.45516 ± 0.0004
refractive index (288.15 K, x2 = 0.6999): 1.44554 ± 0.0004
refractive index (288.15 K, x2 = 0.7998): 1.43365 ± 0.0004
refractive index (288.15 K, x2 = 0.8996): 1.41884 ± 0.0004
refractive index (288.15 K, x2 = 0.9494): 1.41002 ± 0.0004
refractive index (293.15 K, x2 = 0): 1.48416 ± 0.0004
refractive index (293.15 K, x2 = 0.0996): 1.48112 ± 0.0004
refractive index (293.15 K, x2 = 0.1998): 1.47724 ± 0.0004
refractive index (293.15 K, x2 = 0.3): 1.47268 ± 0.0004
refractive index (293.15 K, x2 = 0.3998): 1.46731 ± 0.0004
refractive index (293.15 K, x2 = 0.5011): 1.46057 ± 0.0004
refractive index (293.15 K, x2 = 0.599): 1.45283 ± 0.0004
refractive index (293.15 K, x2 = 0.6999): 1.44322 ± 0.0004
refractive index (293.15 K, x2 = 0.7998): 1.43136 ± 0.0004
refractive index (293.15 K, x2 = 0.8996): 1.41658 ± 0.0004
refractive index (293.15 K, x2 = 0.9494): 1.40783 ± 0.0004
refractive index (298.15 K, x2 = 0): 1.48198 ± 0.0004
refractive index (298.15 K, x2 = 0.0996): 1.47892 ± 0.0004
refractive index (298.15 K, x2 = 0.1998): 1.47499 ± 0.0004
refractive index (298.15 K, x2 = 0.3): 1.47041 ± 0.0004
refractive index (298.15 K, x2 = 0.3998): 1.465 ± 0.0004
refractive index (298.15 K, x2 = 0.5011): 1.45825 ± 0.0004
refractive index (298.15 K, x2 = 0.599): 1.4505 ± 0.0004
refractive index (298.15 K, x2 = 0.6999): 1.44088 ± 0.0004
refractive index (298.15 K, x2 = 0.7998): 1.42906 ± 0.0004
refractive index (298.15 K, x2 = 0.8996): 1.41432 ± 0.0004
refractive index (298.15 K, x2 = 0.9494): 1.40558 ± 0.0004
refractive index (303.15 K, x2 = 0): 1.47978 ± 0.0004
refractive index (303.15 K, x2 = 0.0996): 1.47667 ± 0.0004
refractive index (303.15 K, x2 = 0.1998): 1.47273 ± 0.0004
refractive index (303.15 K, x2 = 0.3): 1.46813 ± 0.0004
refractive index (303.15 K, x2 = 0.3998): 1.4627 ± 0.0004
refractive index (303.15 K, x2 = 0.5011): 1.45591 ± 0.0004
refractive index (303.15 K, x2 = 0.599): 1.44817 ± 0.0004
refractive index (303.15 K, x2 = 0.6999): 1.43852 ± 0.0004
refractive index (303.15 K, x2 = 0.7998): 1.42671 ± 0.0004
refractive index (303.15 K, x2 = 0.8996): 1.412 ± 0.0004
refractive index (303.15 K, x2 = 0.9494): 1.40329 ± 0.0004
refractive index (308.15 K, x2 = 0): 1.47761 ± 0.0004
refractive index (308.15 K, x2 = 0.0996): 1.47445 ± 0.0004
refractive index (308.15 K, x2 = 0.1998): 1.47046 ± 0.0004
refractive index (308.15 K, x2 = 0.3): 1.4658 ± 0.0004
refractive index (308.15 K, x2 = 0.3998): 1.46034 ± 0.0004
refractive index (308.15 K, x2 = 0.5011): 1.45358 ± 0.0004
refractive index (308.15 K, x2 = 0.599): 1.44577 ± 0.0004
refractive index (308.15 K, x2 = 0.6999): 1.43617 ± 0.0004
refractive index (308.15 K, x2 = 0.7998): 1.42437 ± 0.0004
refractive index (308.15 K, x2 = 0.8996): 1.40968 ± 0.0004
refractive index (308.15 K, x2 = 0.9494): 1.40094 ± 0.0004
refractive index (313.15 K, x2 = 0): 1.47562 ± 0.0004
refractive index (313.15 K, x2 = 0.0996): 1.4722 ± 0.0004
refractive index (313.15 K, x2 = 0.1998): 1.46818 ± 0.0004
refractive index (313.15 K, x2 = 0.3): 1.46347 ± 0.0004
refractive index (313.15 K, x2 = 0.3998): 1.45797 ± 0.0004
refractive index (313.15 K, x2 = 0.5011): 1.45115 ± 0.0004
refractive index (313.15 K, x2 = 0.599): 1.44326 ± 0.0004
refractive index (313.15 K, x2 = 0.6999): 1.43367 ± 0.0004
refractive index (313.15 K, x2 = 0.7998): 1.42179 ± 0.0004
refractive index (313.15 K, x2 = 0.8996): 1.40723 ± 0.0004
refractive index (313.15 K, x2 = 0.9494): 1.39851 ± 0.0004
refractive index (318.15 K, x2 = 0): 1.47347 ± 0.0004
refractive index (318.15 K, x2 = 0.0996): 1.46999 ± 0.0004
refractive index (318.15 K, x2 = 0.1998): 1.46593 ± 0.0004
refractive index (318.15 K, x2 = 0.3): 1.46119 ± 0.0004
refractive index (318.15 K, x2 = 0.3998): 1.45564 ± 0.0004
refractive index (318.15 K, x2 = 0.5011): 1.44879 ± 0.0004
refractive index (318.15 K, x2 = 0.599): 1.44089 ± 0.0004
refractive index (318.15 K, x2 = 0.6999): 1.43125 ± 0.0004
refractive index (318.15 K, x2 = 0.7998): 1.41937 ± 0.0004
refractive index (318.15 K, x2 = 0.8996): 1.40479 ± 0.0004
refractive index (318.15 K, x2 = 0.9494): 1.39613 ± 0.0004
refractive index (323.15 K, x2 = 0): 1.47134 ± 0.0004
refractive index (323.15 K, x2 = 0.0996): 1.46783 ± 0.0004
refractive index (323.15 K, x2 = 0.1998): 1.46374 ± 0.0004
refractive index (323.15 K, x2 = 0.3): 1.45889 ± 0.0004
refractive index (323.15 K, x2 = 0.3998): 1.45336 ± 0.0004
refractive index (323.15 K, x2 = 0.5011): 1.44656 ± 0.0004
refractive index (323.15 K, x2 = 0.599): 1.43856 ± 0.0004
refractive index (323.15 K, x2 = 0.6999): 1.42888 ± 0.0004
refractive index (323.15 K, x2 = 0.7998): 1.41694 ± 0.0004
refractive index (323.15 K, x2 = 0.8996): 1.40233 ± 0.0004
refractive index (323.15 K, x2 = 0.9494): 1.39357 ± 0.0004
